Activity calls are given as the source filed them. No cut-off for these calls is given here.
Legend:
NCI-H1650 [1] = test: Effect on expression of Nanog mRNA expression in human NCI-H1650 cells at 5 to 10 uM incubated for 72 hrs by RT-PCR method; type: cell-based; details: nci-h1650, 72 h
NCI-H146 [2] = test: Effect on expression of Nanog mRNA expression in human NCI-H146 cells at 5 to 10 uM incubated for 72 hrs by RT-PCR method; type: cell-based; details: nci-h146, 72 h
NCI-H1650 [3] = test: Inhibition of YAP1/TEAD2 interaction in human NCI-H1650 cells assessed as suppression of CTGF mRNA expression at 5 to 10 uM incubated for 72 hrs by RT-PCR method; type: cell-based
[4] = biological target: Transcriptional coactivator YAP1 (Homo sapiens) (UniProt P46937); test: Inhibition of YAP1 in human NCI-H1703 cells assessed as suppression of PDK2 mRNA expression at 5 to 10 uM incubated for 72 hrs by RT-PCR method; type: cell-based
Transcriptional coactivator YAP1 (Homo sapiens), sequence (P46937 whole entry): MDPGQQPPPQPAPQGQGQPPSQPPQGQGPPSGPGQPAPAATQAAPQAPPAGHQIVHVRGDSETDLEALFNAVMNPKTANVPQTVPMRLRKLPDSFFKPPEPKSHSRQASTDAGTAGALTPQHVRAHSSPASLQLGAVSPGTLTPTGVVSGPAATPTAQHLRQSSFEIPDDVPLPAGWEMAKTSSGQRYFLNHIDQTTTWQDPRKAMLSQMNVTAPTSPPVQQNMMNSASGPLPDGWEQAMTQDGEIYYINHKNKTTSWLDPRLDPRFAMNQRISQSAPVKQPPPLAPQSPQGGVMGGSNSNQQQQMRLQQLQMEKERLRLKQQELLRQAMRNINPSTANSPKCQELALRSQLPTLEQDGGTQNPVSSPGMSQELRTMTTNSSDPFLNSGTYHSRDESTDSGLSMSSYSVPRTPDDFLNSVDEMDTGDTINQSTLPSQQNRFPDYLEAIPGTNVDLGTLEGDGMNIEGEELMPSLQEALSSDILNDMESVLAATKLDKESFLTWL

[5] = biological target: Transcriptional coactivator YAP1 (Homo sapiens) (UniProt P46937); test: Inhibition of YAP1 in human NCI-H1650 cells assessed as disruption in YAP1/OCT4 interaction at 5 uM incubated for 72 hrs by immunoprecipitation-Westem blot assay; type: cell-based
NCI-H146 [6] = test: Effect on expression of Oct4 mRNA expression in human NCI-H146 cells at 5 to 10 uM incubated for 72 hrs by RT-PCR method; type: cell-based; details: nci-h146, 72 h
HCC827 = test: Cytotoxicity in erlotinib-resistant human HCC827 cells assessed as reduction in cell viability at 1 to 20 uM by MTT assay; type: functional, cell-based
NCI-H146 [7] = test: Inhibition of self-renewal capacity in methotrexate insensitive stem-like side-population cells of human NCI-H146 cells assessed as reduction in number of spheres at 2 uM incubated for 3 days after 7 days methotrexate exposure by sphere formation assay; type: functional
[8] = biological target: Transcriptional coactivator YAP1 (Homo sapiens) (UniProt P46937); test: Inhibition of YAP1 in human A549 cells assessed as disruption in YAP1/OCT4 interaction at 5 uM incubated for 72 hrs by immunoprecipitation-Westem blot assay; type: cell-based
Homo sapiens [9] = species: Homo sapiens; test: Cytotoxicity in human 92-1 cells assessed as reduction in cell viability at 0.5 to 20 uM incubated for 72 hrs by MTT assay; type: functional, cell-based
[10] = biological target: Transcriptional coactivator YAP1 (Homo sapiens) (UniProt P46937); test: Inhibition of YAP1 (unknown origin) assessed as disruption in YAP1/OCT4 interaction at 5 uM by ELISA relative to control
NCI-H1703 [11] = test: Effect on expression of Nanog mRNA expression in human NCI-H1703 cells at 5 to 10 uM incubated for 72 hrs by RT-PCR method; type: cell-based; details: nci-h1703, 72 h
PC-9 = test: Cytotoxicity in gefitinib resistant human PC9 cells assessed as reduction in cell viability at 1 to 20 uM by MTT assay; type: functional, cell-based
[12] = biological target: Transcriptional coactivator YAP1 (Homo sapiens) (UniProt P46937); test: Inhibition of YAP1 (unknown origin) assessed as disruption in YAP1/OCT4 interaction at 50 uM by cell based assay
[13] = biological target: Transcriptional coactivator YAP1 (Homo sapiens) (UniProt P46937); test: Inhibition of YAP1 in human NCI-H1703 cells assessed as suppression of Sox2 mRNA expression at 5 to 10 uM incubated for 72 hrs by RT-PCR method; type: cell-based
NCI-H1650 [14] = test: Inhibition of self-renewal capacity in cisplatin insensitive stem-like side-population cells of human NCI-H1650 cells assessed as reduction in number of spheres at 2 uM incubated for 5 days after 7 days cisplatin exposure by sphere formation assay; type: functional, cell-based
SK-MEL-5 = test: Cytotoxicity in human SK-MEL-5 cells assessed as reduction in cell viability at 0.5 to 20 uM incubated for 72 hrs by MTT assay; type: functional, cell-based
[15] = biological target: Transcriptional coactivator YAP1 (Homo sapiens) (UniProt P46937); test: Inhibition of YAP1 in human NCI-H1703 cells assessed as suppression of HK2 mRNA expression at 5 to 10 uM incubated for 72 hrs by RT-PCR method; type: cell-based
NCI-H1650 [16] = test: Inhibition of self-renewal capacity in stem-like side-population cells of human NCI-H1650 cells assessed as reduction in number of spheres at 50 uM incubated for 10 days by sphere formation assay relative to control; type: functional; details: NCI-H1650, 240 h
Homo sapiens [17] = species: Homo sapiens; test: Cytotoxicity in human WM1366 cells assessed as reduction in cell viability at 0.5 to 20 uM incubated for 72 hrs by MTT assay; type: functional, cell-based
NCI-H1650 [18] = test: Cytotoxicity in human NCI-H1650 cells assessed as reduction in cell viability at 0.5 to 20 uM incubated for 72 hrs by MTT assay; type: functional, cell-based
[19] = biological target: Transcriptional coactivator YAP1 (Homo sapiens) (UniProt P46937); test: Inhibition of YAP1 in human NCI-H146 cells assessed as suppression of HK2 mRNA expression at 5 to 10 uM incubated for 72 hrs by RT-PCR method; type: cell-based
[20] = biological target: Transcriptional coactivator YAP1 (Homo sapiens) (UniProt P46937); test: Inhibition of YAP1 in human NCI-H146 cells assessed as suppression of Sox2 mRNA expression at 5 to 10 uM incubated for 72 hrs by RT-PCR method; type: cell-based
[21] = biological target: Transcriptional coactivator YAP1 (Homo sapiens) (UniProt P46937); test: Inhibition of YAP1 in human NCI-H1650 cells assessed as suppression of HK2 mRNA expression at 5 to 10 uM incubated for 72 hrs by RT-PCR method; type: cell-based
[22] = biological target: Transcriptional coactivator YAP1 (Homo sapiens) (UniProt P46937); test: Inhibition of YAP1 in human NCI-H1703 cells assessed as suppression of PD-L1 mRNA expression at 5 to 10 uM incubated for 72 hrs by RT-PCR method; type: cell-based
[23] = biological target: Transcriptional coactivator YAP1 (Homo sapiens) (UniProt P46937); test: Inhibition of YAP1 in human NCI-H1650 cells assessed as suppression of vimentin mRNA expression at 5 to 10 uM incubated for 72 hrs by RT-PCR method; type: cell-based
[24] = biological target: Transcriptional coactivator YAP1 (Homo sapiens) (UniProt P46937); test: Inhibition of YAP1 in human NCI-H1650 cells assessed as suppression of Sox2 mRNA expression at 5 to 10 uM incubated for 72 hrs by RT-PCR method; type: cell-based
A549 = test: Cytotoxicity in human A549 cells assessed as reduction in cell viability at 0.5 to 20 uM incubated for 72 hrs by MTT assay; type: functional, cell-based
NCI-H1703 [25] = test: Inhibition of YAP1/TEAD2 interaction in human NCI-H1703 cells assessed as suppression of CTGF mRNA expression at 5 to 10 uM incubated for 72 hrs by RT-PCR method; type: cell-based
[26] = biological target: Transcriptional coactivator YAP1 (Homo sapiens) (UniProt P46937); test: Inhibition of YAP1 in human NCI-H1650 cells assessed as suppression of PD-L1 mRNA expression at 5 to 10 uM incubated for 72 hrs by RT-PCR method; type: cell-based
[27] = biological target: Transcriptional coactivator YAP1 (Homo sapiens) (UniProt P46937); test: Inhibition of YAP1 in human NCI-H1703 cells assessed as suppression of fibronectin mRNA expression at 5 to 10 uM incubated for 72 hrs by RT-PCR method; type: cell-based
NCI-H1703 [28] = test: Cytotoxicity in human NCI-H1703 cells assessed as reduction in cell viability at 0.5 to 20 uM incubated for 96 hrs by MTT assay; type: functional, cell-based
[29] = biological target: Transcriptional coactivator YAP1 (Homo sapiens) (UniProt P46937); test: Inhibition of YAP1 in human NCI-H146 cells assessed as suppression of PDK2 mRNA expression at 5 to 10 uM incubated for 72 hrs by RT-PCR method; type: cell-based
[30] = biological target: Transcriptional coactivator YAP1 (Homo sapiens) (UniProt P46937); test: Inhibition of YAP1 in human NCI-H1650 cells assessed as suppression of PDK2 mRNA expression at 5 to 10 uM incubated for 72 hrs by RT-PCR method; type: cell-based
HUVEC = test: Inhibition of angiogenic tubule formation in HUVEC at 1 to 5 uM incubated for 18 to 24 hrs; type: functional, cell-based; details: Homo sapiens
NCI-H1703 [31] = test: Effect on expression of Oct4 mRNA expression in human NCI-H1703 cells at 5 to 10 uM incubated for 72 hrs by RT-PCR method; type: cell-based; details: nci-h1703, 72 h
NCI-H1650 [32] = test: Effect on expression of Oct4 mRNA expression in human NCI-H1650 cells at 5 to 10 uM incubated for 72 hrs by RT-PCR method; type: cell-based; details: nci-h1650, 72 h
NCI-H226 = test: Cytotoxicity in human NCI-H226 cells assessed as reduction in cell viability at 0.5 to 20 uM incubated for 96 hrs by MTT assay; type: functional, cell-based
[33] = biological target: Transcriptional coactivator YAP1 (Homo sapiens) (UniProt P46937); test: Inhibition of YAP1 in human NCI-H1650 cells assessed as reduction in Sox2 protein expression at 50 uM by luciferase reporter gene assay; type: cell-based
[34] = biological target: Transcriptional coactivator YAP1 (Homo sapiens) (UniProt P46937); test: Inhibition of YAP1 in human NCI-H1703 cells assessed as suppression of vimentin mRNA expression at 5 to 10 uM incubated for 72 hrs by RT-PCR method; type: cell-based
NCI-H1975 = test: Cytotoxicity in gefitinib and erlotinib resistant human NCI-H1975 cells assessed as reduction in cell viability at 1 to 10 uM incubated for 72 hrs by MTT assay; type: functional, cell-based
[35] = biological target: Transcriptional coactivator YAP1 (Homo sapiens) (UniProt P46937); test: Inhibition of YAP1 in human NCI-H1650 cells assessed as suppression of fibronectin mRNA expression at 5 to 10 uM incubated for 72 hrs by RT-PCR method; type: cell-based

- inhibition [4]: Active
- inhibition [5]: Active
- inhibition [8]: Active
- inhibition [10]: 95%
- inhibition [12]: > 85%
- inhibition [13]: Active
- inhibition [15]: Active
- inhibition [19]: Active
- inhibition [20]: Active
- inhibition [21]: Active
- inhibition [22]: Active
- inhibition [23]: Active
- inhibition [24]: Active
- inhibition [26]: Active
- inhibition [27]: Active
- inhibition [29]: Active
- inhibition [30]: Active
- inhibition [33]: 85.3%
- inhibition [34]: Active
- inhibition [35]: Active
SMILES: O=C(CC1CCN(C(=O)CCc2ccccc2)CC1)N[C@@H](Cc1ccc(OCc2ccccc2)cc1)C(=O)O
- Activity (NCI-H1650 [1]): Non-Toxic
- Activity (NCI-H146 [2]): Non-Toxic
- inhibition (NCI-H1650 [3]): inactive
- Activity (NCI-H146 [6]): Non-Toxic
- Activity (HCC827): Active
- inhibition (NCI-H146 [7]): Active
- Activity (Homo sapiens [9]): Active
- Activity (NCI-H1703 [11]): Non-Toxic
- Activity (PC-9): Active
- inhibition (NCI-H1650 [14]): Active
- Activity (SK-MEL-5): Active
- inhibition at 50 µM (NCI-H1650 [16]): 72.6%
- Activity (Homo sapiens [17]): Active
- Activity (NCI-H1650 [18]): Active
- Activity (A549): Active
- inhibition (NCI-H1703 [25]): inactive
- Activity (NCI-H1703 [28]): Active
- inhibition (HUVEC): Active
- Activity (NCI-H1703 [31]): Non-Toxic
- Activity (NCI-H1650 [32]): Non-Toxic
- Activity (NCI-H226): Active
- Activity (NCI-H1975): Active
